pIC50: −log10 of the molar value. Residues, ends and D or L forms follow the SMILES beside them. *: point of attachment. Cbz = O=C(OCc1ccccc1)*
Legend:
Assay type in all cases: cell-based
KEAP1 mutant cell lines = test: Viability of KEAP1 wild-type versus KEAP1 mutant cell lines
Excerpt: FIG. 56A is a graph showing the IC50 of the glutaminase inhibitor BPTES on KEAP1 wild-type cell lines versus KEAP1 mutant cell lines.
FIG. 56B is a graph showing the viability of KEAP1 wild-type cell lines versus KEAP1 mutant cell lines in response to the glutaminase inhibitor BPTES.
FIG. 57A is a graph showing the IC50 of the […] buthionine sylphoximine (BSO) on KEAP1 wild-type cell lines versus KEAP1 mutant cell lines.
FIG. 57B is a graph showing the viability of KEAP1 wild-type cell lines versus KEAP1 mutant cell lines in response to BSO.

full-length NRF2 = test: Effect of KEAP1 on NRF2 expression in transfected 293 cells (Western blot); settings: 293 cells transfected with NRF2 and KEAP1 plasmids
Description: FIG. 23 is a set of immunoblots showing the effect of NRF2 exon 2 and exon 2+3 deletions on KEAP1 interaction. 293 cells were transfected with plasmids expressing FLAG-NRF2, Δe2 FLAG-NRF2, Δe2+3 FLAG-NRF2 or HA-KEAP1. 48 hours after transfection, cells were lysed, and either lysates (top gel) or anti-FLAG immunoprecipitations were analyzed by Western blotting using the indicated antibodies.
Plasmid DNAs were transfected into cells using Lipofectamine 2000 (ThermoFisher) and OptiMEM (Gibco) as recommended by manufacturer protocol. Lysates were prepared 2-3 days post transfection. Expression plasmids used were pRK5.NRF2, pRK5.NRF2δe2, pRK5.NRF2δe2,3, pRK5.NRF2.FLAG and pRK5.KEAP1.HA.

[1] = test system: KEAP1 mutant cell lines and KEAP1 wild-type cell lines; test: Growth in soft agar (anchorage independent conditions) of a panel of NSCLC cell lines
Description: (§1) FIG. 62 is a series of photographs showing colony formation of KEAP1 mutant cell lines and KEAP1 wild-type cell lines grown in soft agar (anchorage independent conditions) in the presence of IGF1 R inhibitors linsitinib and NVP-AEW541, and in the presence or absence of glutathione.
(§2) Expression of IGF1 R was greater in KEAP1 mutant NSCLC cells relative to KEAP1 wild-type NSCLC cell lines. To test the effect of IGF1 R inhibition on KEAP1 mutant and KEAP1 wild-type cells, cell lines were treated with linsitinib, a potent and selective IGF1 R small molecule inhibitor. […] However, this compound was very potent at inhibiting colony growth of A549 cells in soft agar, having an IC50 of about 20 nM.

A549 cells = test: Colony growth of A549 cells in soft agar; settings: Homo sapiens, read-out: IC50 for inhibiting colony growth of A549 cells in soft agar
Description: as §1, §2

[2] = test system: three wild-type and three mutant KEAP1 NSCLC cell lines; test: Proliferation of wild-type and mutant KEAP1 NSCLC cell lines
[3] = test system: KEAP1 mutant and KEAP1 wild-type cell lines; test: Colony formation in soft agar with or without NRF2 knockdown
Description: Representative areas of the plate were photographed. FIG. 44 is a series of bar graphs showing the quantified colony formation for each cell type and treatment group shown in FIG. 43. Error bars represent standard deviation from biological triplicate wells. FIG. 48 is a series of photographs showing A549 cells expressing NRF2sh10 shRNA plated into regular tissue culture dishes (top) or soft agar (bottom). Cells were treated with either vehicle or 500 ng/ml doxycycline, in the presence or absence of 2 mM N-acetyl cysteine (NAC).

[4] = test system: reactive oxygen species (ROS); test: ROS levels measured by H2DCF; settings: exogenous glutathione, dichlorofluorescein staining
Excerpt: FIG. 49 is bar graph showing reactive oxygen species (ROS) levels under indicated conditions as measured using 2′,7′-dichlorodihydrofluorescein diacetate (H2DCF). Error bars represent standard deviation from triplicate wells.
FIG. 53 is a histogram showing increasing ROS levels in response to shNRF2 and/or erastin, as measured by H2DCF.

O=C(Cc1ccccc1)Nc1nnc(CCSCCc2nnc(NC(=O)Cc3ccccc3)s2)s1 [BPTES]
preferential toxicity for KEAP1 mutant cell lines (KEAP1 mutant cell lines): did not display preferential toxicity

CCCCS(=N)(=O)CCC(N)C(=O)O (stereo not drawn) [BSO, buthionine sylphoximine]
preferential toxicity for KEAP1 mutant cell lines (KEAP1 mutant cell lines): did not display preferential toxicity

CC(C)C[C@@H](C=O)NC(=O)[C@H](CC(C)C)NC(=O)[C@H](CC(C)C)NC(=O)OCc1ccccc1 [MG132] (Cbz-Leu-Leu-Leu-aldehyde)
inhibitory effect of KEAP1 on full-length NRF2 expression (full-length NRF2): mostly abolished

C[C@]1(O)C[C@@H](c2nc(-c3ccc4ccc(-c5ccccc5)nc4c3)c3c(N)nccn32)C1 [linsitinib]
selectivity of growth inhibition for KEAP1 mutant cell lines [1]: selective growth inhibition in soft agar of this compound in KEAP1 mutant cell lines | pIC50 (A549 cells): ~7.70 | effect on proliferation [2]: little effect on proliferation

N[C@@H](CCC(=O)N[C@@H](CS)C(=O)NCC(=O)O)C(=O)O [reduced glutathione, glutathione]
ability to form colonies in soft agar ([3]; all tested cell lines, 1 mM reduced glutathione): generally increased the ability of all tested cell lines to form colonies in soft agar | rescue of the consequences of NRF2 knockdown ([3]; soft agar, dox-induced NRF2 shRNA): unable to rescue the consequences of NRF2 knockdown | ROS levels [4]: reduce reactive oxygen (ROS) levels
